Source: patent US7179825B2, “Retinoic acid mimetic anilides” (Janssen Pharmaceutica N.V., priority 1997, dated 2007)

Tests used:
Ovariectomized rats = test: Vaginal keratinization test on ovariectomized rats (Example C.2); type: in vivo; settings: estradiol undecylate induced keratinization, per os once daily on days 1-3, active dose = 50% of rats show complete suppression; for minimal effective dose: Rattus norvegicus, po, read-out: LAD (lowest active dose)
Method in brief: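 Ovariectomized rats given s.c. estradiol undecylate (100 μg per 100 g body weight in sesame oil), then oral compound once daily on days 1-3 (vehicle PEG 200). Vaginas assessed histologically one day after last dose; lowest active dose (mg/kg) is the dose giving complete keratinization suppression in 50% of rats.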

[1] = tested on: metabolism of retinoic acid in human breast cancer cells; test: Inhibition of retinoic acid (RA) metabolism (Example C.1); type: cell-based; settings: MCF-7 human breast cancer cells, 3H-RA as substrate, concentration needed to reduce the amount of metabolites to 50% of the control
Method in brief: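 MCF-7 cells, pre-stimulated with RA the day before, incubated with ³H-RA substrate and test compound in 1% DMSO. Polar ³H-metabolites separated from unmetabolized RA and counted by scintillation. IC50 is the concentration cutting metabolite formation to 50% of control, with blank run alongside.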

| SMILES | IC50 ([1]; MCF7) [nM] | IC50 [1] [nM] | minimal effective dose (Ovariectomized rats) [mg/kg] | LAD (lowest active dose) (Ovariectomized rats) [mg/kg] |
| --- | --- | --- | --- | --- |
| CC(Cc1ccccc1)C(=O)Nc1ccc(C(C(C)C)n2ccnc2)cc1 (racemic) [Compound 164, (±)-N-[4-[1-(1H-imidazol-1-yl)-2-methylpropyl]phenyl]-α-methylbenzenepropanamide] | 8.15 | – | 20 | – |
| CC(C)C(c1ccc(NC(=O)c2ccccc2)cc1)n1ccnc1 (racemic) [Compound 166] | – | 1.75 | – | 5.00 |
| CC(C)C(c1ccc(NC(=O)c2cnccn2)cc1)n1ccnc1 (racemic) [Compound 170] | – | 12.2 | – | 10.00 |
| CC(C)C(c1ccc(NC(=O)c2ccsc2)cc1)n1ccnc1 (racemic) [Compound 173] | – | 5.17 | – | 10.00 |
| CC(C)C(c1ccc(NC(=O)C2CCCCC2)cc1)n1ccnc1 (racemic) [Compound 174] | – | 1.6 | – | 10.00 |
| C/C(C(=O)Nc1ccc(C(C(C)C)n2ccnc2)cc1)=C(/C)c1ccccc1 (racemic) [Compound 176] | – | 18.7 | – | >10.00 |
| CC(C)C(c1ccc(NC(=O)C2CCCO2)cc1)n1ccnc1 (racemic) [Compound 181] | – | 14.1 | – | 10.00 |
| CC(C)C(c1ccc(NC(=O)c2csc(-c3ccccc3)n2)cc1)n1ccnc1 (racemic) [Compound 186] | – | > 100 | – | >10.00 |
| CC(C)C(c1ccc(NC(=O)C(C)(c2ccccc2)c2ccccc2)cc1)n1ccnc1 (racemic) [Compound 189] | – | > 100 | – | >10.00 |
| CC(C)C(c1ccc(NC(=O)C2CCCC2)cc1)n1ccnc1 (racemic) [Compound 192] | – | 3.34 | – | >10.00 |
| CC(C)C(c1ccc(NC(=O)C2(C)CCCCC2)cc1)n1ccnc1 (racemic) [Compound 201] | – | 3.58 | – | >10.00 |
| CC(C)C(=O)Nc1ccc(C(C(C)C)n2ccnc2)cc1 (racemic) [Compound 209] | – | 8.27 | – | 5.00 |
| CC(C)C(c1ccc(NC(=O)c2cnc3ccccc3n2)cc1)n1ccnc1 (racemic) [Compound 216] | – | 11.7 | – | 20.00 |
| CC(C)C(c1ccc(NC(=O)c2ccc(Br)o2)cc1)n1ccnc1 (racemic) [Compound 220] | – | 1.48 | – | 20.00 |
| CC(C)C(c1ccc(NC(=O)C(C)(C)Oc2ccc(Cl)cc2)cc1)n1ccnc1 (racemic) [Compound 222] | – | 3.32 | – | 20.00 |
| CC(C)C(c1ccc(NC(=O)c2ccnc3ccccc23)cc1)n1ccnc1 (racemic) [Compound 227] | – | 7.8 | – | >10.00 |
| CC(C)C(c1ccc(NC(=O)c2ccc[nH]c2=O)cc1)n1ccnc1 (racemic) [Compound 228] | – | 73 | – | >10.00 |
| COc1ccc(C(=O)Nc2ccc(C(C(C)C)n3ccnc3)cc2)cc1OC (racemic) [Compound 231] | – | 1.86 | – | >10.00 |
| CC(C)C(c1ccc(NC(=O)c2cccc3nccnc23)cc1)n1ccnc1 (racemic) [Compound 233] | – | 2.43 | – | >10.00 |
| CC(C)C(c1ccc(NC(=O)c2ccc(-c3ccccc3)cc2)cc1)n1ccnc1 (racemic) [Compound 238] | – | > 100 | – | 5.00 |
| CC(C)C(c1ccc(NC(=O)CSc2ccncc2)cc1)n1ccnc1 (racemic) [Compound 239] | – | 0.728 | – | 10.00 |
| CC(C)C(c1ccc(NC(=O)Cc2ccc3ccccc3c2)cc1)n1ccnc1 (racemic) [Compound 240] | – | 1.34 | – | 10.00 |
| CC(C)C(c1ccc(NC(=O)c2cnc3ccccc3c2)cc1)n1ccnc1 (racemic) [Compound 241] | – | 2.59 | – | 10.00 |
| CC(C)C(c1ccc(NC(=O)C2CSc3ccccc3O2)cc1)n1ccnc1 (racemic) [Compound 243] | – | 35.9 | – | 10.00 |
| CC(C)C(c1ccc(NC(=O)Cc2cccc3ccccc23)cc1)n1ccnc1 (racemic) [Compound 246] | – | 2.1 | – | 10.00 |
| CC(C)C(c1ccc(NC(=O)Cc2ccccn2)cc1)n1ccnc1 (racemic) [Compound 247] | – | 35.5 | – | 10.00 |

Further lines, with some results ahead:

| IC50 ([1]; MCF7) [nM] | IC50 [1] [nM] | SMILES | minimal effective dose (Ovariectomized rats) [mg/kg] | LAD (lowest active dose) (Ovariectomized rats) [mg/kg] |
| --- | --- | --- | --- | --- |
| – | 4.16 | CC(C)C(c1ccc(NC(=O)c2cc3ccccc3o2)cc1)n1ccnc1 (racemic) [Compound 167] | – | 10.00 |
| – | 2.36 | CC(C)C(c1ccc(NC(=O)c2cc3ccccc3s2)cc1)n1ccnc1 (racemic) [Compound 168] | – | 10.00 |
| – | 0.531 | CC(C)C(c1ccc(NC(=O)c2ccco2)cc1)n1ccnc1 (racemic) [Compound 169] | – | 10.00 |
| – | 3.41 | CC(C)C(c1ccc(NC(=O)c2ccoc2)cc1)n1ccnc1 (racemic) [Compound 172] | – | 10.00 |
| – | 36.9 | CC(C)C(c1ccc(NC(=O)c2ccc3ccccc3c2)cc1)n1ccnc1 (racemic) [Compound 179] | – | >10.00 |
| – | 5.15 | CC(C)C(c1ccc(NC(=O)c2ccc3nnn(C)c3c2)cc1)n1ccnc1 (racemic) [Compound 184] | – | >10.00 |
| – | 39.7 | CC(C)C(c1ccc(NC(=O)C2CCOC2)cc1)n1ccnc1 (racemic) [Compound 185] | – | 10.00 |
| – | 12.1 | CC(C)C(c1ccc(NC(=O)C2CCCCC2)cc1)n1ccnc1 (racemic) [Compound 193] | – | >10.00 |
| – | 7.07 | CC(C)C(c1ccc(NC(=O)c2ccncc2)cc1)n1ccnc1 (racemic) [Compound 194] | – | 10.00 |
| – | 22.3 | CC(C)C(c1ccc(NC(=O)c2cccnc2)cc1)n1ccnc1 (racemic) [Compound 196] | – | >10.00 |
| – | 1.84 | CC(C)C(c1ccc(NC(=O)C2CCCCC2C)cc1)n1ccnc1 (racemic) [Compound 202] | – | >10.00 |
| – | 11.7 | CC(C)C(c1ccc(NC(=O)c2ccc3c(c2)CCC(=O)N3)cc1)n1ccnc1 (racemic) [Compound 205] | – | >10.00 |
| – | 25.4 | C/C(C(=O)Nc1ccc(C(C(C)C)n2ccnc2)cc1)=C(/c1ccccc1)c1ccco1 (racemic) [Compound 207] | – | 10.00 |
| – | 6.43 | CC(C)C(c1ccc(NC(=O)c2ccccn2)cc1)n1ccnc1 (racemic) [Compound 208] | – | >10.00 |
| – | 29 | CC(C)C(c1ccc(NC(=O)CSCc2ccccc2)cc1)n1ccnc1 (racemic) [Compound 210] | – | 20.00 |
| – | 2.07 | CC(C)C(c1ccc(NC(=O)CNc2ccccc2)cc1)n1ccnc1 (racemic) [Compound 213] | – | 20.00 |
| – | 36 | CC(C)C(c1ccc(NC(=O)c2ccc3ccccc3n2)cc1)n1ccnc1 (racemic) [Compound 215] | – | 20.00 |
| 3.2 | – | CCOC(=O)CCCC(=O)Nc1ccc(C(C(C)C)n2ccnc2)cc1 (racemic) [Compound 219, (±)-ethyl 5-[[4-[1-(1H-imidazol-1-yl)-2-methylpropyl]phenyl]amino]-5-oxopentanoate] | 20 | – |
| – | 1.2 | CC(C)C(c1ccc(NC(=O)CSc2ccccc2)cc1)n1ccnc1 (racemic) [Compound 223] | – | 5.00 |
| – | 3.89 | CC(C)C(c1ccc(NC(=O)c2cccc3c2OCCO3)cc1)n1ccnc1 (racemic) [Compound 230] | – | >10.00 |
| – | 1.51 | CC(C)C(c1ccc(NC(=O)c2ccc3c(c2)OCO3)cc1)n1ccnc1 (racemic) [Compound 232] | – | >10.00 |
| – | 6.94 | CC(C)C(c1ccc(NC(=O)Cc2ccco2)cc1)n1ccnc1 (racemic) [Compound 235] | – | 5.00 |
| – | 98.4 | CC(C)C(c1ccc(NC(=O)C(C)(C)O)cc1)n1ccnc1 (racemic) [Compound 236] | – | 5.00 |
| – | 18.2 | CC(C)C(c1ccc(NC(=O)CC2COc3ccccc3O2)cc1)n1ccnc1 (racemic) [Compound 237] | – | 5.00 |
| – | 2.82 | Cc1noc(C)c1C(=O)Nc1ccc(C(C(C)C)n2ccnc2)cc1 (racemic) [Compound 242] | – | >10.00 |
| – | 2.3 | CC(C)C(c1ccc(NC(=O)Cc2cccs2)cc1)n1ccnc1 (racemic) [Compound 244] | – | 10.00 |
| – | 2.79 | CC(C)C(c1ccc(NC(=O)Cc2ccsc2)cc1)n1ccnc1 (racemic) [Compound 245] | – | 10.00 |
| – | 2.59 | CC(C)C(c1ccc(NC(=O)c2ccc3c(c2)C(C)(C)CCC3(C)C)cc1)n1ccnc1 (racemic) [Compound 252] | – | >10.00 |
